Test results reported in patent US10442788B2, “Hepatitis B antiviral agents” (ENANTA PHARMACEUTICALS, INC., priority 2015, dated 2019).
pEC50: −log10 of the molar value.

Assays:
[1] = tested on: HBV; assay: HepAD38 antiviral assay: reduction of viral product accumulation (virion DNA by qPCR, HBsAg or HBeAg by ELISA); assay type: cell-based; details: Hepatitis B virus, 120 h; HepAD38 cells, five days after compound addition; 50% reduction of viral product accumulation relative to no drug controls; read-out: HepAD38 EC50
Outline: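 Tetracycline-washed HepAD38 cells treated with compound (DMSO diluted 1:200) for 5 days, or 8 days with media and compound refreshed on d2 and d5. Virion DNA from lysates quantified by qPCR; HBsAg or HBeAg by ELISA. EC50 is the concentration giving 50% reduction versus no-drug controls, reported as ranges A<1 μM, B 1-10 μM, C>10 μM.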

[2] = Compound toxicity, ATPLite total ATP levels; assay type: cell-based; details: human, HepAD38 cells; 15,000 cells/well, three days after compound addition; 50% reduction of total ATP levels relative to no drug controls
Procedure: Methods: HepAD38 cells are maintained as previously reported (Ladner et al, Antimicrob. Agents Chemother. 1997, […], 1715). Briefly, cells are passaged upon attaining confluency in DMEM/F12 media in the presence of 10% FBS, Penn/Strep, 250 μg/mL G418, and 1 ug/ml tetracycline. Novel compounds are screened by first washing cells three times with PBS to remove tetracycline, and plating in 96 well plates at 35,000 cells/well. Compounds dissolved in DMSO are then diluted 1:200 into wells containing cells. Five days after compound addition, material is harvested for analysis. For an extended 8 day analysis, cells are plated and treated as described above, but media and compound are refreshed on d2 and d5 post initial treatment.
Compound toxicity is evaluated by seeding cells at 15,000 cells/well and treating with compound as described above. Three days after compound addition, cells are treated with ATPLite reagent and compound concentrations that reduce total ATP levels in wells by 50% relative to no drug controls (CC50) are reported; CC50 ranges are as follows: A>30 μM; B 10-30 μM; C<10 μM.

Row | SMILES | pEC50 [1] | CC50 at 3 days [2]
1 | CN(CCO)S(=O)(=O)c1cc(-c2nc(-c3ccc(Br)c(F)c3)c[nH]2)ccc1Cl [Example 104] | > 6.00 | 10 to 30 µM
2 | COCCN(C)S(=O)(=O)c1cc(-c2nc(-c3ccc(Br)c(F)c3)c[nH]2)ccc1Cl [Example 105] | > 6.00 | > 30 µM
3 | CN(CCCO)S(=O)(=O)c1cc(-c2nc(-c3ccc(Br)c(F)c3)c[nH]2)ccc1Cl [Example 106] | > 6.00 | < 10 µM
4 | O=S(=O)(c1cc(-c2nc(-c3ccc(Br)c(F)c3)c[nH]2)ccc1Cl)N1CCCC1CO (stereo not shown) [Example 107] | > 6.00 | > 30 µM
5 | O=S(=O)(c1cc(-c2nc(-c3ccc(Br)c(F)c3)c[nH]2)ccc1Cl)N1CC(O)C1 [Example 108] | 5.00 to 6.00 | > 30 µM
6 | O=S(=O)(c1cc(-c2nc(-c3ccc(Br)c(F)c3)c[nH]2)ccc1Cl)N1CCC(O)C1 (stereo not shown) [Example 109] | > 6.00 | < 10 µM
7 | O=S(=O)(c1cc(-c2nc(-c3ccc(Br)c(F)c3)c[nH]2)ccc1Cl)N1CCCC(O)C1 (stereo not shown) [Example 110] | > 6.00 | > 30 µM
8 | CC(C)NS(=O)(=O)c1cc(-c2nc(-c3ccc(Br)c(F)c3)c[nH]2)ccc1Cl [Example 111] | > 6.00 | < 10 µM
9 | CC(C)N(C)S(=O)(=O)c1cc(-c2nc(-c3ccc(Br)c(F)c3)c[nH]2)ccc1Cl [Example 112] | > 6.00 | > 30 µM
10 | CN(C1CCCCC1)S(=O)(=O)c1cc(-c2nc(-c3ccc(Br)c(F)c3)c[nH]2)ccc1Cl [Example 113] | > 6.00 | < 10 µM
11 | O=S(=O)(c1cc(-c2nc(-c3ccc(Br)c(F)c3)c[nH]2)ccc1Cl)N1CCC(O)C(F)C1 (stereo not shown) [Example 114] | > 6.00 | > 30 µM
12 | O=S(=O)(NCCO)c1cc(-c2nc(-c3ccc(Br)c(F)c3)c[nH]2)ccc1Cl [Example 115] | > 6.00 | > 30 µM
13 | O=S(=O)(NCCCO)c1cc(-c2nc(-c3ccc(Br)c(F)c3)c[nH]2)ccc1Cl [Example 116] | > 6.00 | > 30 µM
14 | CS(=O)(=O)CCNS(=O)(=O)c1cc(-c2nc(-c3ccc(Br)c(F)c3)c[nH]2)ccc1Cl [Example 117] | > 6.00 | > 30 µM
15 | CNCCNS(=O)(=O)c1cc(-c2nc(-c3ccc(Br)c(F)c3)c[nH]2)ccc1Cl [Example 118] | > 6.00 | > 30 µM
16 | COC(=O)NCCNS(=O)(=O)c1cc(-c2nc(-c3ccc(Br)c(F)c3)c[nH]2)ccc1Cl [Example 119] | > 6.00 | < 10 µM
17 | COC(=O)NCC(C)NS(=O)(=O)c1cc(-c2nc(-c3ccc(Br)c(F)c3)c[nH]2)ccc1Cl (stereo not shown) [Example 120] | > 6.00 | < 10 µM
18 | Cc1ccccc1-c1c[nH]c(-c2ccc(Cl)c(S(=O)(=O)N3CCC(O)CC3)c2)n1 [Example 121] | 5.00 to 6.00 | > 30 µM
19 | O=S(=O)(c1cc(-c2nc(-c3ccccc3C3CC3)c[nH]2)ccc1Cl)N1CCC(O)CC1 [Example 122] | < 5.00 | > 30 µM
20 | O=S(=O)(c1cc(-c2nc(-c3ccc(Br)c(F)c3)c[nH]2)ccc1Cl)N1CCC(F)CC1 [Example 123] | > 6.00 | > 30 µM
21 | O=S(=O)(c1cc(-c2nc(-c3ccc(Br)c(F)c3)c[nH]2)ccc1Cl)N1CCC(F)(F)CC1 [Example 124] | > 6.00 | < 10 µM
22 | COC(=O)CNS(=O)(=O)c1cc(-c2nc(-c3ccc(Br)c(F)c3)c[nH]2)ccc1Cl [Example 125] | < 5.00 | > 30 µM

Row | SMILES | pEC50 [1] | CC50 at 3 days [2]
23 | COC(=O)CN(C)S(=O)(=O)c1cc(-c2nc(-c3ccc(Br)c(F)c3)c[nH]2)ccc1Cl [Example 126] | < 5.00 | > 30 µM
24 | CC(CO)NS(=O)(=O)c1cc(-c2nc(-c3ccc(Br)c(F)c3)c[nH]2)ccc1Cl (stereo not shown) [Example 127] | > 6.00 | > 30 µM
25 | COC(=O)C(C)NS(=O)(=O)c1cc(-c2nc(-c3ccc(Br)c(F)c3)c[nH]2)ccc1Cl (stereo not shown) [Example 128] | < 5.00 | > 30 µM
26 | CC(CO)N(C)S(=O)(=O)c1cc(-c2nc(-c3ccc(Br)c(F)c3)c[nH]2)ccc1Cl (stereo not shown) [Example 129] | > 6.00 | < 10 µM
27 | O=S(=O)(c1cc(-c2nc(-c3ccc(Br)c(F)c3)c[nH]2)ccc1Cl)N1CCN(c2ccccn2)CC1 [Example 130] | > 6.00 | > 30 µM
28 | O=S(=O)(c1cc(-c2nc(-c3cc(F)c(Br)c(F)c3)c[nH]2)ccc1Cl)N1CCC(O)CC1 [Example 131] | > 6.00 | > 30 µM
29 | O=S(=O)(c1cc(-c2nc(-c3ccc(Br)c(F)c3)c[nH]2)ccc1Cl)N1CCCCC(O)C1 (stereo not shown) [Example 132] | > 6.00 | > 30 µM
30 | O=S(=O)(c1cc(-c2nc(-c3ccc(Br)c(F)c3)c[nH]2)ccc1Cl)N1CCC(O)(CO)CC1 [Example 133] | > 6.00 | > 30 µM
31 | CC(O)C(C)(C)NS(=O)(=O)c1cc(-c2nc(-c3ccc(Br)c(F)c3)c[nH]2)ccc1Cl (stereo not shown) [Example 134] | > 6.00 | > 30 µM
32 | O=S(=O)(c1cc(-c2nc(-c3ccc(Br)c(Br)c3)c[nH]2)ccc1Cl)N1CCC(O)CC1 [Example 135] | > 6.00 | > 30 µM
33 | O=S(=O)(c1cc(-c2nc(-c3cccc(C4CC4)c3)c[nH]2)ccc1Cl)N1CCC(O)CC1 [Example 136] | 5.00 to 6.00 | > 30 µM
34 | O=S(=O)(c1cc(-c2nc(-c3ccc(Br)c(F)c3)c[nH]2)ccc1Cl)N1CCCC(O)CC1 (stereo not shown) [Example 137] | > 6.00 | > 30 µM
35 | CC(C)(C)OC(=O)NCCCNS(=O)(=O)c1cc(-c2nc(-c3ccc(Br)c(F)c3)c[nH]2)ccc1Cl [Example 138] | > 6.00 | > 30 µM
36 | COC(=O)NCCCNS(=O)(=O)c1cc(-c2nc(-c3ccc(Br)c(F)c3)c[nH]2)ccc1Cl [Example 139] | > 6.00 | > 30 µM
37 | CC(C)OC(=O)NCCCNS(=O)(=O)c1cc(-c2nc(-c3ccc(Br)c(F)c3)c[nH]2)ccc1Cl [Example 140] | > 6.00 | > 30 µM
38 | CC(C)(C)OC(=O)N1CCN(S(=O)(=O)c2cc(-c3nc(-c4ccc(Br)c(F)c4)c[nH]3)ccc2Cl)CC1 [Example 142] | 5.00 to 6.00 | < 10 µM
39 | COC(=O)N1CCN(S(=O)(=O)c2cc(-c3nc(-c4ccc(Br)c(F)c4)c[nH]3)ccc2Cl)CC1 [Example 143] | > 6.00 | > 30 µM
40 | CN1CCN(S(=O)(=O)c2cc(-c3nc(-c4ccc(Br)c(F)c4)c[nH]3)ccc2Cl)CC1 [Example 144] | > 6.00 | > 30 µM
41 | O=S(=O)(c1cc(-c2nc(-c3ccc(Br)c(F)c3)c[nH]2)ccc1Cl)N1CCN(CCO)CC1 [Example 145] | > 6.00 | > 30 µM
42 | CC(C)(C)OC(=O)NCCNS(=O)(=O)c1cc(-c2nc(-c3ccc(Br)c(F)c3)c[nH]2)ccc1Cl [Example 146] | > 6.00 | > 30 µM
43 | CCOC(=O)NCCCNS(=O)(=O)c1cc(-c2nc(-c3ccc(Br)c(F)c3)c[nH]2)ccc1Cl [Example 147] | > 6.00 | > 30 µM
44 | N#Cc1cc(-c2c[nH]c(-c3ccc(Cl)c(S(=O)(=O)N4CCC(O)CC4)c3)n2)ccc1Cl [Example 148] | > 6.00 | > 30 µM
